Values of other authors in patent US6585958B1, “Medicinal aerosol formulations” (Jago Research AG, priority 1998, dated 2003).

Conditions: at 20° C.

density	vapor pressure	Structure (SMILES)
about 1.2 mg/ml	about 6 bar	FCC(F)(F)F [HFA 134a, 1,1,1,2-tetrafluoroethane]
about 1.4 mg/ml	about 4.2 bar	FC(C(F)(F)F)C(F)(F)F [HFA 227, 1,1,1,2,3,3,3-heptafluoropropane]
